This note sets out measurements from article PMC11173485, “Connecting GSK-3β Inhibitory Activity with IKK-β or ROCK-1 Inhibition to Target Tau Aggregation and Neuroinflammation in Alzheimer’s Disease—Discovery, In Vitro and In Cellulo Activity of Thiazole-Based Inhibitors” (Molecules, 2024).

One experiment concerns the target T1, IKK-β (Homo sapiens, UniProt O14920).
T1 construct: purchased Promega
T1 sequence (O14920 1-756): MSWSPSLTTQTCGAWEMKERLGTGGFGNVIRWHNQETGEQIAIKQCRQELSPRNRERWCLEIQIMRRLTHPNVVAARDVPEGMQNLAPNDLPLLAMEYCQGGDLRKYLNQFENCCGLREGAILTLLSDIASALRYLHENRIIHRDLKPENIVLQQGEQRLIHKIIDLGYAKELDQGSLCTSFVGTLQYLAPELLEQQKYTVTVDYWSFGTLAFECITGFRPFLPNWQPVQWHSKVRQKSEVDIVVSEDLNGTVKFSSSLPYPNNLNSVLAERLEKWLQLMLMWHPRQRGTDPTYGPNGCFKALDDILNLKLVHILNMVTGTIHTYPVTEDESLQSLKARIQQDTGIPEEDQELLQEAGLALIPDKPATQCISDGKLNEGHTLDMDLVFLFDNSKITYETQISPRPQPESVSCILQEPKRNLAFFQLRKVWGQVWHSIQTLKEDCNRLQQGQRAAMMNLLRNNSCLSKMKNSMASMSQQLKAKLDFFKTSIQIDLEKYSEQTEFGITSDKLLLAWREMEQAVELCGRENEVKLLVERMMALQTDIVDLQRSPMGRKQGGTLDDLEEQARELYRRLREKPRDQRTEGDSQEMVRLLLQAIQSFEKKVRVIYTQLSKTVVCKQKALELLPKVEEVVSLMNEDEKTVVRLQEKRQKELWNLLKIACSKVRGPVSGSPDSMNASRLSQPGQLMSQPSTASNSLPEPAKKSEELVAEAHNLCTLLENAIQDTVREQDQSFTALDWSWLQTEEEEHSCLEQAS
Nature of the experiment: ADP-Glo kinase assay, IKK-β inhibition. It is filed as biochemical. The note with it: 10 µM; mean ± SD; read-out: % inh. at 10 µM IKK-β. The text has this:
We evaluated the inhibitory activity of the final compounds against GSK-3β, IKK-β, and ROCK-1 kinases using the commercially available ADP-Glo™ kinase assay. The method was based on the measurement of luminescence that correlates with kinase activity. […] The latter are inhibitors of the kinases of interest and were integral to the design of our studies.
Promega’s Kinase Enzyme Systems (Promega; Madison, WI, USA) were used to determine the activities of the tested compounds against the human recombinant kinases GSK-3β, IKK- β, and ROCK-1. The assays were performed according to the provided manufacturer’s instruction, based on the optimized conditions of the enzymatic reactions, using the low-volume, white polystyrene, 384-well plates. The ADP-Glo™ Assay (Promega; Madison, WI, USA) was used for bioluminescent detection of the kinase activity. Stock solutions of the tested compounds in DMSO (1mM) were diluted with the Kinase Assay Buffer before use (40 mM Tris, pH 7.5, enriched with 50 µM dithiothreitol; DTT), giving the final desired concentrations. The kinase enzymes, substrates, and ATP solutions were also diluted with the assay buffer prior to use. The GSK-3β, IKK-β, and ROCK-1 substrates were derived from human muscle glycogen synthase 1, human IkBA, and human 40S ribosomal protein S6, respectively. The assay procedure was as follows: At first, the appropriate kinase enzyme (GSK-3β: 10 ng per well; IKK-β: 45 ng per well; ROCK-1: 24 ng per well) was incubated with the tested sample (10 µM in well) for 5 min. The DMSO solution (1% in well) was used in the blank samples instead of the tested inhibitors. After the incubation period, ATP (25 µM per well in the case of GSK-3β and IKK-β kinases; 5 µM per well in the case of ROCK-1 kinase) and an appropriate enzyme substrate (0.2 µg/µL in well) were added to start the enzymatic reaction. The reaction mixture was kept at room temperature for 1 h; then, the ADP-Glo™ reagent was added, to terminate the kinase reaction and deplete any remaining ATP. After 40 min, a second reagent (Kinase Detection Reagent) was applied to convert the obtained ADP to ATP and to generate light from the newly synthesized ATP using a luciferase/luciferin reaction. The mixture was incubated for another 30 min at room temperature before the luminescence was measured. The calculations of the percent of kinases’ inhibition by tested compounds were based on the equation 100 − (S/B) × 100; S and B are the enzyme activities with and without the tested sample, respectively. […] Each compound was evaluated in two independent experiments, with every data point collected in duplicate.
With `CC(C)C(=O)Nc1cc(-c2cc3c(s2)C(=O)NC(C)(C)N3)ccn1` [Compound 39, N-(4-(2,2-Dimethyl-4-oxo-1,2,3,4-tetrahydrothieno [3,2-d]pyrimidin-6-yl)pyridin-2-yl)isobutyramide], the inhibition at 10 µM is 33%.

In the case of `CC1(C)NC(=O)c2sc(-c3ccnc(NC(=O)C4CCC4)c3)cc2N1` [Compound 41, N-(4-(2,2-Dimethyl-4-oxo-1,2,3,4-tetrahydrothieno [3,2-d]pyrimidin-6-yl)pyridin-2-yl)-cyclobutanecarboxamide], the inhibition at 10 µM came out at 32%.

As for `CC(C)C(=O)Nc1cc(-c2cc(NC(N)=O)c(C(N)=O)s2)ccn1` [Compound 48, 5-(2-Isobutyramidopyridin-4-yl)-3-ureidothiophene-2-carboxamide], the inhibition at 10 µM was below 10%.

For `NC(=O)Nc1cc(-c2ccnc(NC(=O)C3CC3)c2)sc1C(N)=O` [Compound 49, 5-(2-(Cyclopropanecarboxamido)pyridin-4-yl)-3-ureidothiophene-2-carboxamide], the inhibition at 10 µM is 16%.

Consider `NC(=O)Nc1cc(-c2ccnc(NC(=O)C3CCC3)c2)sc1C(N)=O` [Compound 50, 5-(2-(Cyclobutanecarboxamido)pyridin-4-yl)-3-ureidothiophene-2-carboxamide], for which the inhibition at 10 µM is below 10%.

On to `O=C1NC2(CCOC2)Nc2cc(-c3ccnc(NC(=O)C4CC4)c3)sc21` (stereo not shown) [Compound 62, N-(4-(4′-Oxo-3′,4,4′,5-tetrahydro-1′H,2H-spiro[furan-3,2′-thieno [3,2-d]pyrimidin]-6′-yl)pyridin-2-yl)cyclopropanecarboxamide], for which the inhibition at 10 µM is 39%.

Regarding `COc1nc(-c2ccnc(NC(=O)C3CC3)c2)sc1C(N)=O` [II, reference compound], the inhibition at 10 µM worked out at 22%.

Staying with this experiment, now noted: mean ± SEM; ATP 25 µM.
Consider `CC1(C)NC(=O)c2sc(-c3ccnc(NC(=O)C4CC4)c3)cc2N1` [Compound 40, N-(4-(2,2-Dimethyl-4-oxo-1,2,3,4-tetrahydrothieno [3,2-d]pyrimidin-6-yl)pyridin-2-yl)-cyclopropanecarboxamide], for which it took 4.38 ± 0.544 µM to reach half-maximal inhibition (IC50).

`NC(=O)Nc1cc(-c2cccc(NC(=O)C3CC3)c2)sc1C(N)=O` [Compound 58, 5-(3-(Cyclopropanecarboxamido)phenyl)-3-ureidothiophene-2-carboxamide] showed an IC50 of 0.422 ± 0.012 µM. This IC50 is about 10-fold lower than that of the molecule before.

`O=C1NC2(CCCC2)Nc2cc(-c3ccnc(NC(=O)C4CC4)c3)sc21` [Compound 60, N-(4-(4’-Oxo-3’,4’-dihydro-1’H-spiro[cyclopentane-1,2’-thieno [3,2-d]pyrimidin]-6’-yl)pyridin-2-yl)cyclopropanecarboxamide] had an IC50 of 7.35 µM.
